In patent publication US12570642B2, “GLP-IR modulating compounds” (Gilead Sciences, Inc., priority 2021, dated 2026) one finds EC50 data, which are given here for 23 molecules.

This test concerns the target GLP-1R (Homo sapiens, UniProt P43220). In words: GLP-1R Activation - cAMP Assay. The note with it: each compound run on one of the two cAMP assays (Assay 1 or Assay 2, not specified). The format is cell-based. On the procedure: GLP-1R Activation—cAMP Assay 1
GLP-1R activation by compounds of the present disclosure were quantified by measuring cAMP increase in CHO cells stably expressing GLP-1R (MultiSpan product #C1267-1a). The cells were harvested and plated in growth medium (DMEM/F-12 (Corning product #10-090-CV) supplemented with 10% FBS (HyClone product #SH30071-03), penicillin/streptomycin (Corning product #30-002CI) and 10 μg/ml puromycin (Gibco product #A11138-03)) at 1,000 cells/well in a 384-well plate (Greiner product #781080). The cells were then incubated overnight at 37° C., 5% CO2. The next day, the medium was removed and the cells were washed with DPBS (Corning product #21-031-CM) before adding the assay medium (HBSS, Corning product #21-023-CV) with 20 mM Hepes (Gibco product #15630-080) and 0.1% BSA (Rockland Immunochemicals product #BSA-1000)). Following the medium change, the cells were incubated for 1 hour at 37° C., 5% CO2. The tested GLP-1 compound was added to the cells in a 10-point dose response followed by a 30 minutes incubation at 37° C., 5% CO2. cAMP concentration increase was then detected using Cisbio's cAMP Gs Dynamic Kit (product #62AM4PEC) according to the manufacturer's protocol. The response was plotted against the log of the agonist concentration and fitted to a sigmoidal equation to determine the EC50.

[1] abbreviates: cAMP increase in CHO cells stably expressing GLP-1R.

Sequence of GLP-1R (P43220 24-463): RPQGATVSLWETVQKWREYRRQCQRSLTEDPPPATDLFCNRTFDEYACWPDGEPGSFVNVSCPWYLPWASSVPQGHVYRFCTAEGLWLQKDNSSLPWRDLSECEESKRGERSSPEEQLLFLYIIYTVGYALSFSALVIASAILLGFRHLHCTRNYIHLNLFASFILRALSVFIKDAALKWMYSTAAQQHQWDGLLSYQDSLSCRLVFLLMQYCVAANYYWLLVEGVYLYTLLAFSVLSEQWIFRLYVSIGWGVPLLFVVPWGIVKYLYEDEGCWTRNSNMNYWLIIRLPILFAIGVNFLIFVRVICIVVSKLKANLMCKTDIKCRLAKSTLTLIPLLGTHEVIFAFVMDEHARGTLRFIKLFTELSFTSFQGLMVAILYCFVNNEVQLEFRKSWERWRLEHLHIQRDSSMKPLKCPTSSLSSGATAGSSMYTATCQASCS

The molecule `COCCn1c(Cc2cc(F)c(-c3cc(OC)cc(OCc4ccc(C#N)cc4F)n3)cc2F)nc2ccc(C(=O)O)cc21` [Example 43, 2-(4-(6-((4-cyano-2-fluorobenzyl)oxy)-4-methoxypyridin-2-yl)-2,5-difluorobenzyl)-1-(2-methoxyethyl)-1H-benzo[d]imidazole-6-carboxylic Acid] showed a concentration giving a half-maximal response (EC50) under setting [1] of 20.8 nM.

For the molecule `CC1(C)COCC1n1c(Cc2ccc(-c3cccc(OCc4ccc(C#N)cc4F)n3)cc2F)nc2ccc(C(=O)O)cc21` (centres unmarked) [Example 384, 2-(4-(6-((4-cyano-2-fluorobenzyl)oxy)pyridin-2-yl)-2-fluorobenzyl)-1-(4,4-dimethyltetrahydrofuran-3-yl)-1H-benzo[d]imidazole-6-carboxylic acid], a half-maximal response under setting [1] (EC50) required 0.205 nM.

For `CC1(C)COC[C@H]1n1c(Cc2cc(F)c(-c3cccc(OCc4ccncc4F)n3)cc2F)nc2ccc(C(=O)O)cc21` [Example 429, (S)-2-(2,5-difluoro-4-(6-((3-fluoropyridin-4-yl)methoxy)pyridin-2-yl)benzyl)-1-(4,4-dimethyltetrahydrofuran-3-yl)-1H-benzo[d]imidazole-6-carboxylic acid], it took 0.139 nM to reach a half-maximal effect under setting [1] (EC50).

For the molecule `COC[C@@]1(C)COCC1n1c(Cc2cc(F)c(-c3cccc(OCc4ccc(Cl)cc4F)n3)cc2F)nc2ccc(C(=O)O)cc21` (single isomer, unassigned) [Example 546], under setting [1], it took 0.706 nM to reach a half-maximal effect (EC50).

`N#Cc1ccc(COc2cccc(-c3cc(F)c(Cc4nc5ccc(C(=O)O)cc5n4[C@@H]4COCC45CC5)cc3F)n2)c(F)c1` (single isomer, unassigned) [Example 260] returned a 50% effective concentration (EC50) under setting [1] of 0.411 nM.

In turn, `N#Cc1ccc(COc2cccc(-c3cc(F)c(Cc4nc5ccc(C(=O)O)cc5n4C4CCC45CC5)cc3F)n2)c(F)c1` (centres unmarked) [Example 64, 2-(4-(6-((4-cyano-2-fluorobenzyl)oxy)pyridin-2-yl)-2,5-difluorobenzyl)-1-(spiro[2.3]hexan-4-yl)-1H-benzo[d]imidazole-6-carboxylic Acid] displayed an EC50 under setting [1] of 1.28 nM.

Molecule `CC1(C)COC[C@H]1n1c(Cc2c(F)cc(-c3cccc(OCc4ccc(Cl)cc4F)n3)c(F)c2F)nc2c(F)cc(C(=O)O)cc21` [Example 242, (S)-2-(4-(6-((4-chloro-2-fluorobenzyl)oxy)pyridin-2-yl)-2,3,6-trifluorobenzyl)-1-(4,4-dimethyltetrahydrofuran-3-yl)-4-fluoro-1H-benzo[d]imidazole-6-carboxylic acid] gave an EC50 under setting [1] of 0.02 nM.

For the molecule `CC(=O)N1C[C@@H]2[C@H](n3c(Cc4cc(F)c(-c5cccc(OCc6ccc(C#N)cc6F)n5)cc4F)nc4ccc(C(=O)O)cc43)CO[C@@H]2C1` [Example 18, 1-((3S,3aR,6aS)-5-acetylhexahydro-2H-furo[2,3-c]pyrrol-3-yl)-2-(4-(6-((4-cyano-2-fluorobenzyl)oxy)pyridin-2-yl)-2,5-difluorobenzyl)-1H-benzo[d]imidazole-6-carboxylic Acid], the EC50 under setting [1] is 49.2 nM.

`COC(C)(C)Cn1c(Cc2cc(F)c(-c3cccc(OCc4cnc(-n5ccnn5)cc4Cl)n3)cc2F)nc2ccc(C(=O)O)cc21` [Example 563, 2-(4-(6-((4-chloro-6-(1H-1,2,3-triazol-1-yl)pyridin-3-yl)methoxy)pyridin-2-yl)-2,5-difluorobenzyl)-1-(2-methoxy-2-methylpropyl)-1H-benzo[d]imidazole-6-carboxylic acid] registered an EC50 under setting [1] of 0.041 nM.

`COCCn1c(Cc2c(F)cc(-c3cccc(OCc4ccc(C#N)cc4)n3)c(F)c2F)nc2ccc(C(=O)O)cc21` [Example 281, 2-(4-(6-((4-cyanobenzyl)oxy)pyridin-2-yl)-2,3,6-trifluorobenzyl)-1-(2-methoxyethyl)-1H-benzo[d]imidazole-6-carboxylic acid] returned an EC50 under setting [1] of 0.655 nM.

In the case of `COCCn1c(Cc2cc(F)c(-c3cccc(OCc4ccc5c(c4)CN(S(C)(=O)=O)C5)n3)cc2F)nc2c(F)cc(C(=O)O)cc21` [Example 514, 2-(2,5-difluoro-4-(6-((2-(methylsulfonyl)isoindolin-5-yl)methoxy)pyridin-2-yl)benzyl)-4-fluoro-1-(2-methoxyethyl)-1H-benzo[d]imidazole-6-carboxylic acid], under setting [1], the EC50 worked out at 0.152 nM.

Under setting [1], `CC1(C)COC[C@@H]1n1c(Cc2cc(F)c(-c3cccc(OCc4ccc(Cl)cc4)n3)cc2F)nc2ccc(C(=O)O)cc21` (single isomer, unassigned) [Example 385B] returned an EC50 of 1.12 nM.

For the molecule `CC1(C)COC[C@H]1n1c(Cc2cc(F)c(-c3ccc(F)c(OCc4ccc(C#N)cc4)n3)cc2F)nc2ccc(C(=O)O)nc21` [Example 396, (S)-2-(4-(6-((4-cyanobenzyl)oxy)-5-fluoropyridin-2-yl)-2,5-difluorobenzyl)-3-(4,4-dimethyltetrahydrofuran-3-yl)-3H-imidazo[4,5-b]pyridine-5-carboxylic acid], it took 0.157 nM to reach a half-maximal effect under setting [1] (EC50).

Regarding `N#Cc1ccc(COc2cccc(-c3cc(F)c(Cc4nc5ccc(C(=O)O)cc5n4[C@@H]4CNC(=O)C4)cc3F)n2)c(F)c1` [Example 2, (S)-2-(4-(6-((4-cyano-2-fluorobenzyl)oxy)pyridin-2-yl)-2,5-difluorobenzyl)-1-(5-oxopyrrolidin-3-yl)-1H-benzo[d]imidazole-6-carboxylic acid], a half-maximal effect ([…]) (EC50) was put at 156 nM.

In turn, `Cc1cc(Cc2nc3ccc(C(=O)O)cc3n2[C@@H]2COCC2(C)C)c(F)cc1-c1ccnc(OCc2ccc(C#N)cc2)n1` [Example 178, (S)-2-(4-(2-((4-cyanobenzyl)oxy)pyrimidin-4-yl)-2-fluoro-5-methylbenzyl)-1-(4,4-dimethyltetrahydrofuran-3-yl)-1H-benzo[d]imidazole-6-carboxylic Acid] yielded an EC50 under setting [1] of 0.499 nM.

`Cn1cc(-c2cc(F)c(COc3cccc(-c4cc(F)c(Cc5nc6ccc(C(=O)O)cc6n5[C@@H]5COCC5(C)C)cc4F)n3)cn2)nn1` [Example 555, (S)-2-(2,5-difluoro-4-(6-((4-fluoro-6-(1-methyl-1H-1,2,3-triazol-4-yl)pyridin-3-yl)methoxy)pyridin-2-yl)benzyl)-1-(4,4-dimethyltetrahydrofuran-3-yl)-1H-benzo[d]imidazole-6-carboxylic acid]: under setting [1], a half-maximal effect (EC50) was put at 0.047 nM.

Under setting [1], `CC1(C)COC[C@H]1n1c(Cc2cc(F)c(-c3cccc(OCc4ccc(Cl)cc4F)n3)cc2F)nc2cnc(C(=O)O)cc21` [Example 423, (S)-2-(4-(6-((4-chloro-2-fluorobenzyl)oxy)pyridin-2-yl)-2,5-difluorobenzyl)-1-(4,4-dimethyltetrahydrofuran-3-yl)-1H-imidazo[4,5-c]pyridine-6-carboxylic acid] had an EC50 of 2.54 nM.

The molecule `COc1cc(Cl)ncc1COc1nc(-c2cc(F)c(Cc3nc4c(F)cc(C(=O)O)cc4n3[C@@H]3COCC3(C)C)c(F)c2F)ccc1F` [Example 339, (S)-2-(4-(6-((6-chloro-4-methoxypyridin-3-yl)methoxy)-5-fluoropyridin-2-yl)-2,3,6-trifluorobenzyl)-1-(4,4-dimethyltetrahydrofuran-3-yl)-4-fluoro-1H-benzo[d]imidazole-6-carboxylic acid] displayed an EC50 under setting [1] of 0.013 nM.

For `CC1(C)COC[C@H]1n1c(Cc2c(F)cc(-c3ccc(F)c(OCc4ccc(Cl)cc4F)n3)cc2F)nc2c(F)cc(C(=O)O)cc21` [Example 306, (S)-2-(4-(6-((4-chloro-2-fluorobenzyl)oxy)-5-fluoropyridin-2-yl)-2,6-difluorobenzyl)-1-(4,4-dimethyltetrahydrofuran-3-yl)-4-fluoro-1H-benzo[d]imidazole-6-carboxylic acid], under setting [1], the EC50 worked out at 0.123 nM.

`CC1(C)COC[C@H]1n1c(Cn2cc(F)c(-c3cccc(OCc4ccc(C#N)cc4F)n3)cc2=O)nc2c(F)cc(C(=O)O)cc21` [Example 145, (S)-2-((6-((4-cyano-2-fluorobenzyl)oxy)-5′-fluoro-2′-oxo-[2,4′-bipyridin]-1′(2′H)-yl)methyl)-1-(4,4-dimethyltetrahydrofuran-3-yl)-4-fluoro-1H-benzo[d]imidazole-6-carboxylic Acid] displayed an EC50 under setting [1] of 0.022 nM.

In turn, `CC1(C)COC[C@@H]1n1c(Cc2ccc(-c3cccc(OCc4ccc(C#N)cc4F)n3)cc2F)nc2ccc(C(=O)O)cc21` (single isomer, unassigned) [Example 380] displayed an EC50 under setting [1] of 0.096 nM.

`COC(=O)N1Cc2ccc(COc3cccc(-c4cc(F)c(Cc5nc6c(F)cc(C(=O)O)cc6n5C[C@@H]5CCO5)cc4F)n3)cc2C1` [Example 349, 2-[[2,5-difluoro-4-[6-[(2-methoxycarbonylisoindolin-5-yl)methoxy]-2-pyridyl]phenyl]methyl]-7-fluoro-3-[[(2S)-oxetan-2-yl]methyl]benzimidazole-5-carboxylic acid]: under setting [1], the response was half-maximal at 0.042 nM (EC50).

As to `CC1(C)COC[C@H]1n1c(Cc2cc(F)c(-c3ccnc(OCc4ccc(C#N)cc4F)n3)cc2F)nc2c(Cl)cc(C(=O)O)cc21` [Example 129, (S)-4-chloro-2-(4-(2-((4-cyano-2-fluorobenzyl)oxy)pyrimidin-4-yl)-2,5-difluorobenzyl)-1-(4,4-dimethyltetrahydrofuran-3-yl)-1H-benzo[d]imidazole-6-carboxylic Acid], the 50% effective concentration (EC50) under setting [1] came out at 0.271 nM.
